Common to all, as to format: biochemical
The target of experiment [1] is T1, α-crystallin (Bos taurus, UniProt P02470+P02510).
T1 sequence (P02470 1-173): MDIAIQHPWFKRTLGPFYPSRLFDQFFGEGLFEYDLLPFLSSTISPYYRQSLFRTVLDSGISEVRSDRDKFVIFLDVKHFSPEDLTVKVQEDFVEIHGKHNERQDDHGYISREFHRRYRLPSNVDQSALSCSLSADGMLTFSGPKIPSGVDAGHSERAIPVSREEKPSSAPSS
T1 sequence (P02510 1-175): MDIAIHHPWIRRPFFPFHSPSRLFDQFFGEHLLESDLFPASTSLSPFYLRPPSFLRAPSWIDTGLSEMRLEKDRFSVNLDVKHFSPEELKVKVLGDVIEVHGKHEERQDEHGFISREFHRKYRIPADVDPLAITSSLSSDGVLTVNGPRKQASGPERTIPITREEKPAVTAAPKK
Description: α-Crystallin modification under longwave ultraviolet illumination. To be noted: exposure of α-crystallin in the presence of longwave ultraviolet illumination.

For experiment [2], the target named is T2, recombinant human αB-crystallin (Homo sapiens, UniProt P02511).
T2 construct: gift of Dr. J. Liang, Brigham and Women's Hospital
T2 sequence (P02511 1-175): T1 sequence (P02510 1-175) with A40T, I61F, A132T, A152V
Description: Recombinant human αB-crystallin cross-linking (SDS-PAGE, silver stain). To be noted: 5 days 37° C. dark. As to the method: Various solutions containing 3-HK (10 μM) or other kynurenine pathway metabolites (10 μM), Cu(II)-glycine (10 μM), Fe(III)-citrate (10 μM), and triethylenetetramine (TETA, 200 μM), were added in combinations as indicated. […] After incubation, aliquots of the total lens protein solutions were mixed with sample buffer containing 4% SDS and 5% β-mercaptoethanol, heated to 95° C. for 5 minutes, and loaded at 1 μg/lane on a 10–20% Tricine gel (Novex, San Diego, Calif.). […] For the experiments with recombinant αB-crystallin, aliquots of the protein solutions were mixed with sample running buffer containing NuPAGE sample buffer (Novex, San Diego, Calif.) and 10% β-mercaptoethanol, heated to 95° C. for 5 minutes, spun briefly, then loaded on a NuPAGE 4–12% Bis-Tris polyacrylamide gel at 375 ng/lane and electrophoresed with denaturing 3-(N-morpholino)propanesulfonic acid (MOPS)-SDS running buffer according to the manufacturer's recommendations.
To exclude the effects of other lens proteins on the observed findings in FIG. 5, these interactions with purified recombinant human αB-crystallin were examined.

A short description of experiment [3]: Superoxide assay (dihydroethidium fluorometric). Conditions: test compound 10 μM. As to the method: Superoxide Assay—The fluorometric assay for superoxide is based upon the dihydroethidium (DHE, HYDROETHDNE™) method (Molecular Probes, Eugene, Oreg.) and used according to the manufacturer's instructions. DHE (1 mM) was freshly prepared in 100% argon-sparged DMSO. The reaction solutions were carried out in PBS, pH 7.4, under ambient gas conditions, in 96-well format plates and contained a test compound (KYN, 3-HK, 3-HAA, and ANA, each at 10 μM), DHE (100 μM), +/− Cu(II)-glycine (1 μM) and incubated at 37EC for 60 minutes. […] Abolition of the reading by co-incubation with superoxide dismutase (1000 U/ml) was used for establishing superoxide specificity. The fluorescent readings were recorded by a Packard FLUOROCOUNT™ fluorescent plate reader with a 510 nm excitation filter and 590 nm emission filter. Potassium superoxide dissolved in degassed DMSO was used as a positive control.

A short description of experiment [4]: Thiobarbituric acid-reactive substance (TBARS) assay for hydroxyl radical. Conditions: reaction with Cu(II). The source says: Although two Fenton chemistry substrates, hydrogen peroxide and reduced redox-active metal, are produced by 3-HK and 3-HAA, evidence of the hydroxyl radical was not detected using the thiobarbituric acid-reactive substance assay (Huang, X. et al., Biochem. 38:7609–7616 (1999)) (data not shown).

The results in this text go back to patent US7166472B2, “Method for the identification of agents that inhibit or promote cataracts and uses thereof” (The General Hospital Corporation, priority 2000, dated 2007).

Numbering of substitutions follows the chain as printed.

As for `Nc1c(O)cccc1C(=O)CC(N)C(=O)O` (stereo not drawn) [3-HK, 3-hydroxykynurenine], the “capacity of altered α-crystallin to reduce metal and generate hydrogen peroxide” value in experiment [1] is given as “dramatically enhanced capacity”. Besides, the αB-crystallin cross-linking result in experiment [2] (metabolite 10 μM alone) is “apparent dimeric and higher order oligomers were observed”. The “αB-crystallin cross-linking with Cu(II)” value in experiment [2] (metabolite 10 μM and Cu(II) 10 μM) was “monomeric and apparent dimeric αB-crystallin species were depleted and a prominent high molecular weight smear was observed”. Also, in experiment [3] (Cu(II)-glycine 1 μM), the “effect of Cu(II) on superoxide generation” value was “did not promote”. The superoxide production entry in experiment [3] (ambient oxygen, dark, 60 minutes) is “negligible”. For the same compound, in experiment [4], the “evidence of the hydroxyl radical” value is “not detected”.
